US20180298344A1, “Realistic Humanized Model of Disease Matrix Environment for Evaluation of Therapeutic Reversal or Cell Fate” (Yale University, priority 2017, published 2018)

Experiments:
[1] = test system: idiopathic pulmonary fibrosis patients; conditions: IPF patients; cited from earlier work
[2] = test system: human microvascular pericytes (PC); test: Gelatinase zymography of active MMP2 and MMP9 from TGF-β1-activated PC with or without nintedanib; format: cell-based
[3] = test system: tumor; conditions: by reducing PC coverage; cited from earlier work
[4] = test system: human microvascular pericytes (PC); test: Long-term (28 day) differentiation of PC on glass coverslips: matrix deposition, fibrotic lesions, α-SMA and vimentin; format: cell-based; conditions: for increase in the formation of lesions compared with nonactivated control: glass
Procedure: Human microvascular PC were isolated from a readily available and nearly inexhaustible source, human placental tissue, by microvascular segment explant outgrowth (Sava et al., Microcirculation, 2015, 22:54-67; Ayres-Sander et al., PLoS One, 2013, 8:e60025; Lauridsen et al., FASEB, 2014, 28:1166-1180; Maier et al., Microcirculation, 2010, 17:367-380). Human placental tissue was segmented, digested with collagenase, and the resulting cells were cultured in M199 (Gibco, Grand Island, NY, USA) medium supplemented with 20% FBS (Hyclone Laboratories, Logan, Utah, USA), and 1% penicillin-streptomycin (Gibco). Isolated pericytes were screened by flow cytometry against NG2 (H-300, Santa Cruz Biotechnology), CD90 (K-15, Santa Cruz), CD146 (P1H12, Biolegend, San Diego, Calif., USA), PDGFR-β (18A2, Santa Cruz), α-SMA (1A4, Santa Cruz), SMMHC (N-16, Santa Cruz), CD31 (C20, Santa Cruz), CD34 (581, Sigma) and CD45 (MEM-28, Sigma). As negative control, PC were incubated with isotype matched IgG. Samples were run on a Stratedigm S1000EXi Flow Cytometer (Stratedigm, San Jose, Calif. USA) and analyzed with FlowJo software (Tree Star, Ashland, Oreg., USA).
For short term (7 day) differentiation studies, PC (passage 3-7) were seeded on healthy or IPF lung tissue slices, polyacrylamide hydrogels, or 25 mm glass coverslips (VWR) at 100×10^3 cells per sample and activated with control media (non-activated), or 1 ng/mL TGF-β1 (PeproTech, Rocky Hill, N.J., USA) for 7 days (18, 19). For bleomycin activation, the cells were activated with 1 μg/mL bleomycin sulfate (Cayman Chemical, Ann Arbor, Mich.) for 1 day and the media was replaced with non-activated media for the remaining 6 days (Sava et al., Microcirculation, 2015, 22:54-67; Sterling et al., J Bio Chem, 1983, 258:14438-14444). TGF-β1 and bleomycin concentrations were based on reports consistent with activation of fibroblasts (Sava et al., Microcirculation, 2015, 22:54-67; Maroni and Davis, Bio Reprod, 2012, 87:127). Treatment with CCG-1423 (Sigma) was performed at day 0 for the full 7 days, and labeled as early treatment, or at day 7 and performed for 7 days, and labeled as late treatment. For long-term (28 day) differentiation studies, PC were cultured on 25 mm glass coverslips (VWR) or normal lung sections and the cell media was supplemented with 100 μM ascorbic acid (Spectrum Chemicals, New Brunswick, N.J., USA) to induce matrix deposition. Activation was performed with control media (non-activated), or 1 ng/mL TGF-β1. The media was replaced 3 times a week for 4 consecutive weeks (28 days) in order to mimic the chronic conditions present during fibrosis (Moeller et al., Int J Biochem Cell Biol, 2008, 40:362-382; Sava et al., Microcirculation, 2015, 22:54-67). Treatment with nintedanib (Santa Cruz) was performed at day 21 for the remaining 7 days, and labeled as early treatment, or at day 28 and performed for 2 days, and labeled as late treatment. Concentrations of CCG-1423 (1.0 nM), and nintedanib (1.0 nM) are based on therapeutic dose in studies performed on myofibroblasts (Evelyn et al., Mol Cancer Ther, 2007, 6:2249-2260, Hostettler et al., Resp Res, 2014, 15:157; Conte et al., Eur J Pharm Sci, 2014, 58:13-19; Shi et al., PLoS One, 2011, 6:e28134).
Pericyte pro-fibrotic activation/transition/phenotype was evaluated by positive staining for α-smooth muscle actin (SMA) using anti-α-SMA (1A4, Santa Cruz) and anti-vimentin (V630, Sigma). For matrix composition analysis, the coverslips were stained with anti-collagen I (ab233446, Abcam, Cambridge, Mass., USA), anti-laminin (Clone ab11575, Abcam), anti-collagen IV (Clone C1926, Sigma), or anti-fibronectin (Clone F3648, Sigma) antibodies.

[5] = test system: cultured lung fibroblasts; conditions: cultured lung fibroblasts in vitro; cited from earlier work
[6] = test system: human microvascular pericytes (PC); test: ELISA of MMPs in supernatant of TGF-β1-activated PC with or without nintedanib; format: cell-based; conditions: nintedanib versus TGF-β1 alone
[7] = nintedanib 7 days, TGF-β1-activated PC on glass, flow cytometry

Row | generation of active MMP9 ([2]; P<0.01) | generation of active MMP2 ([2]; P<0.05) | Compound | decline in forced vital capacity [1] | tumor growth [3] | expression of vimentin [4, 7] | expression of α-SMA [4, 7] | fibrotic node formation ([4]; nintedanib 7 days, TGF-β1-activated PC on glass, versus TGF-β1) | fibronectin ([4]; nintedanib 7 days, TGF-β1-activated PC on glass, versus TGF-β1, immunoblotting, P=0.002) | collagen I ([4]; nintedanib 7 days, TGF-β1-activated PC on glass, versus TGF-β1, immunoblotting, P=0.01) | TGF-β1-induced myofibroblast differentiation and matrix deposition [5] | expression of MMP10 [6] | MMP13 in supernatant ([6]; P<0.001) | MMP9 in supernatant ([6]; P<0.01) | MMP8 in supernatant ([6]; P<0.05) | increase in the formation of lesions compared with nonactivated control ([4]; day 14 of TGF-β1 exposure, P<0.001) [fold] | increase in the formation of lesions compared with nonactivated control ([4]; day 28 of TGF-β1 exposure, P<0.01) [fold] | vimentin expression compared with nonactivated control ([4]; long-term TGF-β1 activation on glass, P<0.0001) | α-SMA expression compared with nonactivated control ([4]; long-term TGF-β1 activation on glass, P=0.011)
1 | enhanced | enhanced | COC(=O)c1ccc2c(c1)NC(=O)/C2=C(\Nc1ccc(N(C)C(=O)CN2CCN(C)CC2)cc1)c1ccccc1 [nintedanib] | reducing the decline in forced vital capacity | inhibit tumor growth | without affecting | without affecting | reduced | reduced | reduced | oppose | did not increase | substantial increases | substantial increases | substantial increases |  |  |  | 
2 |  |  | TGF-β1: transforming growth factor (TGF)-β1, fibrotic activator, used at 1 ng/mL |  |  |  |  |  |  |  |  |  |  |  |  | 2.2 | 1.8 | significant increase | significant increase
